Laboratory results: patent US12419837B2, “Liposomal composition containing mild acidic active agent” (TAIWAN LIPOSOME COMPANY, LTD., priority 2016, dated 2025)
Like-named read-outs stand apart in the source and are kept apart here.

What was measured:
Solubility = type: physicochemical; conditions: PGE1 as API
[1] = cited from earlier work

Question: For `CCCCC[C@H](O)/C=C/[C@H]1[C@H](O)CC(=O)[C@@H]1CCCCCCC(=O)O` [PGE1, Prostaglandin E1], which “solubility in tert-Butyl alcohol (TBA)” value (Solubility) is on record?
Answer: soluble

Question: What about the solubility in water (Solubility) of the same molecule?
Answer: water-insoluble

Question: And the “half life in human body” value ([1]; human body (b5))?
Answer: about 30 seconds

Question: And the “half life in human body” value ([1]; human body)?
Answer: 0.5 min and 10 min
